Columns and labels:
Type in all cases: cell-based, human
[1] = system: p-ULK1 (Ser757), p-S6K (Thr389), p-AKT (Ser473), p-JNK1, Beclin, ATG7; test: Immunoblot of mTOR/MAPK and autophagosome assembly proteins in GBM cells; settings: PD 0-10 μM, 24 hours
Method: FIGS. 10A to 10D show the results that PD-mediated autophagy inhibition is independent of mTOR and MAPK signaling pathways. FIGS. 10A to 10C show the results in which cells were treated with PD (0 μM, 0.5 μM, 1 μM, 5 μM, and 10 μM) for 24 hours. The immunoblot analyses for p-ULK1 (Ser757), ULK1, p-S6K (Thr389), p-AKT (Ser473), ERK2, P-ERK, p-JNK1, Beclin, and ATG7 were performed using lysates from GBMs. […] Total protein extracts were analyzed by immunoblot analyses for p-ERK, LC3B, and SQSTM1. GAPDH was used as an internal control.
(§1) Cells treated with the concentrations and materials described in FIGS. 1-3B, 7, 8, 10, 13, 16, 18, and 20 were lysed in buffer containing 20 mM Tris-HCl (pH 7.5), 150 mM NaCl, 1 mM EDTA, 1 mM Na2EDTA, 1 mM EGTA, 1% NP-40, 1% sodium deoxycholate, 1 mM Na3VO4, 1 mM MPI, 1 mM PMSF, and PI cocktails for 15 to 20 minutes on ice. Cell lysates were separated by SDS-PAGE and transferred to nitrocellulose membranes. Immunodetection was performed with the following primary antibodies: rabbit anti-LC3B, rabbit anti-cathepsin B, rabbit-anti GAPDH (Cell Signaling Technology, Danvers, Mass.), mouse anti-SQSTM1/p62, and goat anti-cathepsin D (Santa CruzKPL, Gaithersburg, Md., USA) were incubated at room temperature for 1 hour. The protein bands were detected with ECL western Blotting Substrate (Thermo Fisher Scientific, Waltham, Mass., USA).
Previous studies have shown that PD enhances autophagy via mTOR/MAPK pathway. In order to analyze the molecular mechanisms of PD-mediated autophagy in GBM cells, several regulatory components for autophagy were examined by immunoblot analysis. It is known that mTORC1 activation, measured by S6K phosphorylation, inhibits autophagy initiation by phosphorylating the ULK1 (Ser 757). […] Furthermore, as can be confirmed in FIG. 10A, altered phosphorylation of AKT, which is a positive regulator of mTORC1, was not observed in these cells. […] In order to assess a role of the ERK phosphorylation in autophagy regulation in PD-treated U373MG cells, PD98059, which is a inhibitor of MEK (i.e., an upstream activator of ERK), was added before PD treatment and the changes in LC3-II and p62 levels were examined by western blotting.

cathepsin B and D = test: Immunoblot of cathepsin B and D processing in GBM cells; settings: PD 5 μM and 10 μM, 48 hours
Method: Immunoblot analyses for the processing of endogenous CTSB and CTSD are shown (upper, immature form/lower, mature form of CTSB and CTSD). GAPDH was used as a loading control.
as §1
To confirm whether PD functions as an autophagy inhibitor, the effects of PD on lysosomal proteases, cathepsin B and D, were examined Autophagy is a lysosome-mediated and self-degradative process that requires lysosomal cysteine proteases known as cathepsins. Since pro-cathepsins are cleaved into a mature form in lysosomes, the 33 kD active cleaved form of cathepsins has been commonly used as a marker for lysosomal activity. As can be confirmed in FIG. 13, while the mature forms of cathepsin B and D proteins were decreased, immature forms of those protein were increased after PD treatment in U87MG and U373MG cells, implying that PD suppresses a lysosomal function by downregulating the lysosomal proteolytic activity.

U87MG and U373MG cells [2] = test: DQ Red-BSA trafficking assay (lysosomal proteolytic activity) in GBM cells; settings: PD 10 μM or BafA1 (100 μM), 24 hours
Method: Cells were incubated with DMSO, PD (10 μM), or BafA1 (100 μM) for 24 hours, and then the cells were treated with DQ-BSA ([…]) for 30 minutes. Data shown are representative images of each sample. The fluorescence intensity of DQ-BSA was quantified with ImageJ software. More than 100 cells were counted in each condition and the number of puncta per cells is presented as means±SD from three independent experiments.
Cells were placed on coverslips prior to treatment with the materials and continuously loaded with DQ Red-BSA (Invitrogen) at a working concentration of 10 μg/mL in a culture medium at 37° C. for 30 minutes. The cells were fixed in 4% PFA and then subjected to DAPI staining. The images were examined under a Zeiss laser confocal microscope. The number of DQ Red-BSA spots was quantified using ImageJ software.
To confirm the lysosomal activity in PD-treated GBM cells, the DQ-BSA assay was performed to assess lysosomal protein degradation. In DQ-BSA, which is a red BODIPY dye conjugated to bovine serum albumin (BSA), the BSA is so heavily conjugated that the red fluorescence is self-quenched. Upon cleavage of the DQ-BSA by proteolytic enzymes in lysosomal compartments, this quenching is relieved, generating red fluorescence. Thus, DQ-BSA is a useful tool to visualize a lysosomal proteolytic activity.

U87MG and U373MG cells [3] = test: Immunofluorescence of SQSTM1/p62 with GFP-LC3B in GBM cells; settings: PD 10 μM or BafA1 (100 μM), 24 hours
Method: The cells expressing GFP-LC3B (green) were treated with DMSO, PD (10 μM), or BafA1 (100 μM) for 24 hours, followed by staining with an anti-SQSTM1 antibody (red) and DAPI (blue). The merged images (yellow) indicate co-localization between LC3 and p62. The panels on the right are higher-magnification images of the boxed regions.
Cultured cells seeded in plates with microscope coverslips were transfected with a pGFP-LC3B plasmid using Lipofectamine 3000 (Thermo Fisher Scientific) according to the manufacturer's instructions. After the transfection, the cells were fixed with 4% paraformaldehyde (PFA) in phosphate-buffered saline (PBS) at room temperature for 10 minutes. The images were examined under a laser confocal microscope (Zeiss, Oberkochen, Baden-Wurttemberg, Germany).
Cells treated with the materials were permeabilized with 0.01% Triton X-100 in PBS. After blocking the resulting cells in 2% bovine serum albumin (BSA) in PBS, they were incubated at 4° C. with a primary antibody against SQSTM1/p62 (Santa Cruz) overnight. The stained cells were incubated with an Alexa594-conjugated secondary antibody (Invitrogen, Calif., USA). The images were examined under a Zeiss laser confocal microscope.

Question: How did the “altered phosphorylation of AKT” value [1] turn out when `C[C@@H]1O[C@@H](O[C@H]2[C@H](OC(=O)[C@]34CCC(C)(C)C[C@H]3C3=CC[C@@H]5[C@@]6(C)C[C@H](O)[C@H](O[C@@H]7O[C@H](CO)[C@@H](O)[C@H](O)[C@H]7O)C(CO)(CO)[C@@H]6CC[C@@]5(C)[C@]3(C)C[C@H]4O)OC[C@H](O)[C@@H]2O)[C@H](O)[C@H](O)[C@H]1O[C@@H]1OC[C@@H](O)[C@H](O[C@@H]2OC[C@](O)(CO)[C@H]2O)[C@H]1O` [PD, platycodin D] was run?
Answer: Its value is “not observed”.

Question: What about the “phosphorylation levels of JNK vs control cells” value [1] of the same compound?
Answer: Its value is “no significant difference”.

Question: What about the “phosphorylation of S6K and ULK1” value [1] of the same compound?
Answer: Its value is “no alteration”.

Question: And the “Beclin-1 and ATG7 protein levels” value ([1]; both cells)?
Answer: Its value is “no significant changes”.

Question: And the “immature forms of cathepsin B and D proteins” value (cathepsin B and D)?
Answer: Its value is “increased”.

Question: What about the “mature forms of cathepsin B and D proteins” value (cathepsin B and D) of the same compound?
Answer: The value was “decreased”.

Question: And the “DQ-BSA red fluorescence vs DMSO” value (U87MG and U373MG cells [2])?
Answer: Its value is “significant reduction”.

Question: And the “p62 staining and colocalization with GFP-LC3B puncta” value (U87MG and U373MG cells [3])?
Answer: Its value is “increase”.
